Experimental data from ChEMBL document CHEMBL5154881, “Discovery of First-in-Class TAK1-MKK3 Protein-Protein Interaction (PPI) Inhibitor (R)-STU104 for the Treatment of Ulcerative Colitis through Modulating TNF-α Production” (J Med Chem, 2022).
Blank lines part the entries; values can stand above or below the molecule they belong to. Active and inactive are the calls of the source. The rule behind the calls is not given here.

What was measured:
[1] = system: RAW264.7; assay: Inhibition of LPS-induced TNFalpha production in mouse RAW264.7 cells preincubated for 2 hrs followed by LPS treatment for 24 hrs by RT-qPCR analysis; format: functional, cell-based
[2] = system: RAW264.7; assay: Inhibition of LPS-induced TNFalpha production in mouse RAW264.7 cells at 50 uM preincubated for 2 hrs followed by LPS treatment for 24 hrs by RT-qPCR analysis relative to control; format: functional; conditions: time 26 hrs
[3] = system: Mus musculus; assay: Antiinflammatory activity against DSS-induced C57BL/6 mouse model of acute ulcerative colitis assessed as inhibition ratio of IL-6 protein expression at 50 mg/kg, IG via gavage measured after 7 days by ELISA relative to control; format: functional; design: scale not given: the % may be the effect or the level left; conditions: time 7 day
[4] = system: Mus musculus; assay: Antiinflammatory activity against DSS-induced C57BL/6 mouse model of acute ulcerative colitis assessed as inhibition ratio of IL-1beta protein expression at 50 mg/kg, IG via gavage measured after 7 days by ELISA relative to control; format: functional; design: scale not given: the % may be the effect or the level left; conditions: time 7 day
[5] = system: Mus musculus; assay: Antiinflammatory activity against DSS-induced C57BL/6 mouse model of acute ulcerative colitis assessed as inhibition ratio of IL-6 mRNA expression in colon tissue at 50 mg/kg, IG via gavage measured after 7 days by RT-qPCR analysis relative to control; format: functional; design: scale not given: the % may be the effect or the level left; conditions: time 7 day
[6] = system: Mus musculus; assay: Antiinflammatory activity against IL-10-/- C57BL/6 mouse model of ulcerative colitis assessed as inhibition ratio of IL-1beta mRNA expression in colon tissue at 50 mg/kg, IG via gavage and measured after 8 weeks by RT-qPCR analysis relative to control; format: functional; design: scale not given: the % may be the effect or the level left
[7] = system: Mus musculus; assay: Anti-ulcerative colitis activity against DSS-induced ulcerative colitis C57BL/6 mouse model assessed as reduction in DAI recovery score ratio at 50 mg/kg, IG via gavage administered for 7 days and measured everyday relative to control; format: functional; design: scale not given: the % may be the effect or the level left; conditions: time 7 day
[8] = system: Mus musculus; assay: Antiinflammatory activity against DSS-induced C57BL/6 mouse model of acute ulcerative colitis assessed as inhibition ratio of TNF-alpha mRNA expression in colon tissue at 50 mg/kg, IG via gavage measured after 7 days by RT-qPCR analysis relative to control; format: functional; design: scale not given: the % may be the effect or the level left; conditions: time 7 day
[9] = system: Mus musculus; assay: Anti-ulcerative colitis activity in IL-10-/- C57BL/6 mouse model of ulcerative colitis assessed as histopathological score recovery ratio at 50 mg/kg, IG via gavage for 8 weeks relative to control; format: functional
[10] = system: Mus musculus; assay: Anti-ulcerative colitis activity against DSS-induced ulcerative colitis C57BL/6 mouse model assessed as reduction in DAI score at 50 mg/kg, IG via gavage administered for 7 days and measured everyday (reference value: 4.0); format: functional; conditions: time 7 day
[11] = system: Mus musculus; assay: Anti-ulcerative colitis activity in DSS-induced C57BL/6 mouse ulcerative colitis model assessed as colon length recovery ratio at 50 mg/kg, IG via gavage measured after 7 days relative to control; format: functional; conditions: time 7 day
[12] = system: Mus musculus; assay: Antiinflammatory activity against IL-10-/- C57BL/6 mouse model of ulcerative colitis assessed as inhibition ratio of IL-23 protein expression at 50 mg/kg, IG via gavage and measured after 8 weeks by ELISA relative to control; format: functional; design: scale not given: the % may be the effect or the level left
[13] = system: Mus musculus; assay: Antiinflammatory activity against DSS-induced C57BL/6 mouse model of acute ulcerative colitis assessed as inhibition of IL-23 mRNA expression in colon tissue administered intragastrically via gavage measured after 7 days by RT-qPCR analysis; format: functional, organism-based; conditions: route ig, time 7.0 day, DDE = dose-dependent effect
[14] = system: Mus musculus; assay: Anti-ulcerative colitis activity in DSS-induced C57BL/6 mouse ulcerative colitis model assessed as histopathological score recovery ratio at 50 mg/kg, IG via gavage measured after 7 days by H and E staining method relative to control; format: functional; conditions: time 7 day
[15] = system: Mus musculus; assay: Anti-ulcerative colitis activity in IL-10-/- C57BL/6 mouse model of ulcerative colitis assessed as colon length recovery ratio at 50 mg/kg, IG via gavage for 8 weeks relative to control; format: functional
[16] = system: Mus musculus; assay: Anti-ulcerative colitis activity in IL-10-/- C57BL/6 mouse ulcerative colitis model assessed as animal survival at 50 mg/kg, IG via gavage for 8 weeks; format: functional, organism-based
[17] = system: Mus musculus; assay: Antiinflammatory activity against DSS-induced C57BL/6 mouse model of acute ulcerative colitis assessed as inhibition ratio of IL-23 protein expression at 50 mg/kg, IG via gavage measured after 7 days by ELISA relative to control; format: functional; design: scale not given: the % may be the effect or the level left; conditions: time 7 day
[18] = system: Mus musculus; assay: Antiinflammatory activity against IL-10-/- C57BL/6 mouse model of ulcerative colitis assessed as inhibition ratio of IL-23 mRNA expression in colon tissue at 50 mg/kg, IG via gavage and measured after 8 weeks by RT-qPCR analysis relative to control; format: functional; design: scale not given: the % may be the effect or the level left
[19] = system: Mus musculus; assay: Anti-ulcerative colitis activity against DSS-induced ulcerative colitis C57BL/6 mouse model assessed as body weight recovery rate at 50 mg/kg, IG via gavage administered for 7 days and measured everyday relative to control; format: functional; conditions: time 7 day
[20] = system: Mus musculus; assay: Antiinflammatory activity against IL-10-/- C57BL/6 mouse model of ulcerative colitis assessed as inhibition ratio of TNF-alpha protein expression at 50 mg/kg, IG via gavage and measured after 8 weeks by ELISA relative to control; format: functional; design: scale not given: the % may be the effect or the level left
[21] = system: Mus musculus; assay: Antiinflammatory activity against IL-10-/- C57BL/6 mouse model of ulcerative colitis assessed as inhibition ratio of TNF-alpha mRNA expression in colon tissue at 50 mg/kg, IG via gavage and measured after 8 weeks by RT-qPCR analysis relative to control; format: functional; design: scale not given: the % may be the effect or the level left
[22] = system: Mus musculus; assay: Antiinflammatory activity against DSS-induced C57BL/6 mouse model of acute ulcerative colitis assessed as inhibition ratio of TNF-alpha protein expression at 50 mg/kg, IG via gavage measured after 7 days by ELISA relative to control; format: functional; design: scale not given: the % may be the effect or the level left; conditions: time 7 day
[23] = system: Mus musculus; assay: Antiinflammatory activity against IL-10-/- C57BL/6 mouse model of ulcerative colitis assessed as inhibition ratio of IL-6 mRNA expression in colon tissue at 50 mg/kg, IG via gavage and measured after 8 weeks by RT-qPCR analysis relative to control; format: functional; design: scale not given: the % may be the effect or the level left
[24] = system: Mus musculus; assay: Antiinflammatory activity against IL-10-/- C57BL/6 mouse model of ulcerative colitis assessed as inhibition ratio of IL-1beta protein expression at 50 mg/kg, IG via gavage and measured after 8 weeks by ELISA relative to control; format: functional; design: scale not given: the % may be the effect or the level left
[25] = system: Mus musculus; assay: Antiinflammatory activity against IL-10-/- C57BL/6 mouse model of ulcerative colitis assessed as inhibition ratio of IL-6 protein expression at 50 mg/kg, IG via gavage and measured after 8 weeks by ELISA relative to control; format: functional; design: scale not given: the % may be the effect or the level left
[26] = system: Peritoneal macrophage; assay: Inhibition of LPS-induced TNFalpha production in mouse peritoneal macrophage at 2.6 uM incubated overnight by immunoassay relative to control; format: functional

- IC50 [1]: 51.5 µM
SMILES: COc1cc(OC)c2c(c1)C(=O)CC2c1ccc2cc(OC)ccc2c1 (stereo not given)
- inhibition at 50 µM [2]: 4.6%

SMILES: COc1cc(OC)c2c(c1)C(=O)CC2c1ccc(OC(F)(F)F)cc1 (stereo not given)
- inhibition at 50 µM [2]: 4.4%

- IC50 [1]: 46 µM
SMILES: COc1ccc(C2c3c(OC)cc(OC)cc3C(=O)C2c2cc(OC)cc(OC)c2)cc1 (stereo not given)
- inhibition at 50 µM [2]: 62.3%

- IC50 [1]: 43.6 µM
SMILES: Cc1ccc(C2CC(=O)c3cc4c(cc32)OCO4)cc1 (stereo not given)
- inhibition at 50 µM [2]: 66.2%

SMILES: COc1cc(OC)c2c(c1)C(=O)CC2c1cccs1 (stereo not given)
- inhibition at 50 µM [2]: 5.6%

SMILES: Nc1ccc(O)c(C(=O)O)c1 [MESALAMINE]
- Activity [3]: 53.5%
- Activity [4]: 47.3%
- Activity [5]: 46%
- Activity [6]: 36.9%
- Activity [7]: 25%
- Activity [8]: 48.7%
- Activity [9]: 44.3%
- Activity [10]: 3
- Activity [11]: 39.4%
- Activity [12]: 55.7%
- Activity [13]: Dde
- Activity [14]: 38.3%
- Activity [15]: 32.4%
- Activity [16]: Active
- Activity [17]: 27.5%
- Activity [18]: 54.7%
- Activity [19]: 38.3%
- Activity [20]: 42.2%
- Activity [21]: 30.1%
- Activity [22]: 43.2%
- Activity [23]: 46.3%
- Activity [24]: 44%
- Activity [25]: 54.9%

SMILES: COc1cc2c(cc1OC)C(c1ccc(F)cc1)CC2=O (stereo not given)
- inhibition at 50 µM [2]: 80%

- IC50 [1]: 1.26 µM
SMILES: COc1ccc(C2CC(=O)c3cc(OC)cc(OC)c32)cc1 (stereo not given)
- inhibition at 50 µM [2]: 82.6%

SMILES: COc1cc(C2CC(=O)c3cc(OC)c(OC)c(OC)c32)cc(OC)c1OC (stereo not given)
- inhibition at 2.6 µM [26]: 55%

SMILES: COc1cc(OC)c2c(c1)C(=O)CC2c1ccc(Cl)cc1 (stereo not given)
- inhibition at 50 µM [2]: -98.9%

- IC50 [1]: 3.52 µM
SMILES: COc1cc(OC)cc(C2CC(=O)c3cc(OC)ccc32)c1 (stereo not given)
- inhibition at 50 µM [2]: 0.2%

- IC50 [1]: 3.92 µM
SMILES: COc1cc(OC)c2c(c1)C(=O)CC2c1ccc(SC)cc1 (stereo not given)
- inhibition at 50 µM [2]: 79.8%

SMILES: COc1cc(OC)c2c(c1)C(=O)CC2c1csc2ccccc12 (stereo not given)
- inhibition at 50 µM [2]: 5.9%

SMILES: COc1cc(OC)c2c(c1)C(=O)CC2c1ccc(Br)cc1 (stereo not given)
- inhibition at 50 µM [2]: -88.5%

- IC50 [1]: 4.51 µM
SMILES: COc1cc(OC)c2c(c1)C(=O)CC2c1ccc(OC(C)(F)F)cc1 (stereo not given)
- inhibition at 50 µM [2]: 76.5%

SMILES: O=C1CC(c2ccc(F)cc2)c2cc3c(cc21)OCO3 (stereo not given)
- inhibition at 50 µM [2]: 5.3%

- IC50 [1]: 47.3 µM
SMILES: COc1cc2c(cc1OC)C(c1ccc(C)cc1)CC2=O (stereo not given)
- inhibition at 50 µM [2]: 55.2%

SMILES: COc1cc(OC)c2c(c1)C(=O)CC2c1ccc2c(c1)OCO2 (stereo not given)
- inhibition at 50 µM [2]: 15.5%

- IC50 [1]: 4 µM
SMILES: COc1cc(OC)c2c(c1)C(=O)CC2c1ccccc1C (stereo not given)
- inhibition at 50 µM [2]: 77.6%

- IC50 [1]: > 50 µM
SMILES: COc1ccc([C@@H]2CC(=O)c3cc(OC)cc(OC)c32)cc1

SMILES: COc1ccc2c(c1)C(=O)CC2c1ccc(F)cc1 (stereo not given)
- inhibition at 50 µM [2]: 6.5%

- IC50 [1]: 48.3 µM
SMILES: COc1cc(OC)c2c(c1)C(=O)CC2c1ccc(C)cc1 (stereo not given)
- inhibition at 50 µM [2]: 49.9%

SMILES: COc1cc(OC)c2c(c1)C(=O)CC2c1ccc(F)cc1 (stereo not given)
- inhibition at 50 µM [2]: -4.2%
